According to patent EP1374909A2, “Evaluation of, delivery of, and use of agents to treat heart disorders” (THE GENERAL HOSPITAL CORPORATION, priority 1997, dated 1999):

System: neonatal cardiomyocytes
Assay: Intracellular Ca2+ measurements (fura 2) and cell shortening detection
Format: cell-based, rats
Conditions: maximal isoproterenol stimulation; uninfected and Ad.RSV.PL-infected (10 pfu/cell) cardiomyocytes, 1 Hz
Description: Spontaneously beating cardiomyocytes were prepared from 1 to 2 day old rats and cultured in P-10 medium (GIBCO,BRL) in the presence of 5% fetal calf serum and 10% horse serum for 3 days as described previously in Kang J.X. et al., Proc. Natl. Acad. Sci. U.S.A., 1995, 92:[…] and Kang J.X. and Leaf A., Euro. J. Pharmacol., 1996, 297:97-106, the contents of which are incorporated herein by reference. Measurements of cell shortening and cytosolic Ca^2+ were performed on neonatal cardiomyocytes cultured on round, coated, glass coverslips (0.1 mm thickness, 31 mm diameter) in 35 mm culture dishes. Cells were counted using a hemocytometer. Approximately 5x10^5 cells were plated in each coverslip.
Measurements of intracellular Ca^2+ and cell shortening were performed as described earlier in Hajjar et al. (1997), Kang et al. (1995) and Kang et al (1996), the contents of which are incorporated herein by reference. […] A dual excitation spectrofluorometer (IONOPTIX) was used to record fluorescence emissions (505 nm) elicited from exciting wavelengths of 360 and 380 nm. […] High-contrast microspheres attached to the cell surface of the cardiomyocytes were imaged using a charge-coupled device video camera attached to the microscope, and motion along a selected raster line segment who quantified by a video motion detector system (IONOPTIX).

SMILES: CC(C)NCC(O)c1ccc(O)c(O)c1 (stereo not shown) [isoproterenol]
- time course of the Ca^2+ transients: decreased to the same level
